Assay results as given in patent US20170280720A1, “ARGININE […] INHIBITORS AND USES THEREOF” (EPIZYME, INC., priority 2014, published 2017).
pIC50: −log10 of the molar value.

Biological target: T1, Human CARM1 (PRMT4) (Homo sapiens, UniProt Q86X55)
T1 construct: Flag-CARM1-His; made in house; host or cells: HEK 293F cells (BacMam baculovirus, pFastBacMam)
T1 sequence (Q86X55 2-585 isoform Q86X55-1): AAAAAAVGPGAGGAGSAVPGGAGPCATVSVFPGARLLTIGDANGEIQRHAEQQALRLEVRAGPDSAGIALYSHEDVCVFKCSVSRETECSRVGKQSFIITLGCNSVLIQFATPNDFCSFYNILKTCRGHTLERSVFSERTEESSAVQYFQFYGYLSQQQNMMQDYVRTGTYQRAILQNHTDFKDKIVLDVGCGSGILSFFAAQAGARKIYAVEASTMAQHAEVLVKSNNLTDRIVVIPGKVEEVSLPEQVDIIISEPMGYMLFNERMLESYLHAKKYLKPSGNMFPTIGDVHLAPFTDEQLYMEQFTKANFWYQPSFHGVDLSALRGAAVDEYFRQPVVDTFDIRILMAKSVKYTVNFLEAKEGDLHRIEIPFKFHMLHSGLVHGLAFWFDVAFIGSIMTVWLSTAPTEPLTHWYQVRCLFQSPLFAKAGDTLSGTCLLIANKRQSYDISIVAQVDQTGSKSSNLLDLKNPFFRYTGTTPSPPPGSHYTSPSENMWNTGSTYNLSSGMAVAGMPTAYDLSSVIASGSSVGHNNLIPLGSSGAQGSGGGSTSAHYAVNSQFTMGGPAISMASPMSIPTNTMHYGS
Test: CARM1 biochemical assay (3H-SAM Flashplate, peptide substrate)
Details: read-out: CARM1_ IC50
How it was run: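 FLAG/His-tagged human CARM1 (isoform 1, Δ539-561, baculovirus-expressed), 0.25 nM, preincubated 30 min at room temperature with compound (2% DMSO) in 20 mM Bicine pH 7.6, then reacted with 30 nM 3H-SAM and 250 nM biotinylated H3 16-30 peptide (R26 monomethyl). Stopped with 300 uM cold SAM; labelled peptide captured on streptavidin Flashplate; % inhibition versus DMSO and 1 mM SAH controls fitted to a 4- or 3-parameter curve.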

**Q.** CNCCN(C)Cc1cccc(-c2cnc3c(c2)c(Br)nn3CC2CCOCC2)c1 [Compound 39] was tested. Which pIC50 did it give?
**A.** 5.17

**Q.** How did the pIC50 turn out when CN(CCN)Cc1cccc(-c2nc(NCc3cccnc3)c3cnn(C4CC4)c3n2)c1 [Compound 40] was run?
**A.** 8.15

**Q.** With CC(C)n1ncc2c(NC3CC3)cc(-c3cccc(CN(C)CCN)c3)nc21 [Compound 41] as the molecule, how does the pIC50 read?
**A.** 7.87

**Q.** How did the pIC50 turn out when CNCCN(C)Cc1cccc(-c2cc(C(=O)N3CCc4ccccc4C3)c3cnn(C(C)C)c3n2)c1 [Compound 42] was run?
**A.** 7.08

**Q.** CC(C)n1ncc2c(C(=O)N3CCCCC3)cc(-c3cccc(CN(C)CCN)c3)nc21 [Compound 43] was tested. Which pIC50 did it give?
**A.** 6.75

**Q.** CNCCN(C)Cc1cccc(-c2cc(C(=O)N[C@@H](C)c3ccccc3)c3cnn(C(C)C)c3n2)c1 [Compound 44] was tested. Which pIC50 did it give?
**A.** 7.73

**Q.** CNCCN(C)Cc1cccc(-c2cc(Oc3ccccc3)c3cnn(C(C)C)c3n2)c1 [Compound 45] was tested. Which pIC50 did it give?
**A.** 7.08

**Q.** CC(C)n1cnc2cc(-c3ccc(CN(C)CCN)cc3)ccc21 [Compound 46] was tested. Which pIC50 did it give?
**A.** 5.00

**Q.** With CNCCN(C)Cc1cccc(-c2cc(C(=O)NCc3c(F)cccc3F)c3cnn(C(C)C)c3n2)c1 [Compound 47] as the molecule, how does the pIC50 read?
**A.** 7.65

**Q.** How did the pIC50 turn out when CNC(=O)Nc1cc(-c2cccc(CN(C)CCN)c2)nc2c1cnn2C(C)C [Compound 126] was run?
**A.** 8.10

**Q.** How did the pIC50 turn out when CCC(=O)c1cc(-c2cccc(CN(C)CCNC)c2)nc2c1cnn2C(C)C [Compound 128] was run?
**A.** 7.51

**Q.** With CS(=O)(=O)N1CCC(Cn2cnc3ccc(-c4ccc(CNCCN)cc4)cc32)CC1 [Compound 129] as the molecule, how does the pIC50 read?
**A.** 4.89

**Q.** CNCCN(C)Cc1cc(-c2cc(C(=O)NC3CCOCC3)c3cnn(C(C)C)c3n2)ccc1F [Compound 130] was tested. Which pIC50 did it give?
**A.** 6.88

**Q.** With Cc1ccc(-n2cnc3cc(-c4ccc(CNCCN)cc4)ccc32)cc1 [Compound 131] as the molecule, how does the pIC50 read?
**A.** 5.55

**Q.** COc1ccc(Cn2cnc3ccc(-c4ccc(CNCCN)cc4)cc32)cc1 [Compound 132] was tested. Which pIC50 did it give?
**A.** 5.14

**Q.** With CNCCN(C)Cc1cccc(-c2cc(NC(=O)NC3CCOCC3)c3cnn(C(C)C)c3n2)c1 [Compound 133] as the molecule, how does the pIC50 read?
**A.** 7.92

**Q.** How did the pIC50 turn out when CC(C)n1ncc2c(C(=O)NCc3ccccc3)cc(-c3cccc(CNCCN)c3)cc21 [Compound 134] was run?
**A.** 6.48

**Q.** With COc1cccc(Cc2nc3ccc(-c4ccc(CNCCN)cc4)cc3n2C(C)C)c1 [Compound 135] as the molecule, how does the pIC50 read?
**A.** 5.31

**Q.** With CC(C)n1ncc2c(C(=O)N[C@@H](C)c3ccccc3)cc(-c3cccc(CN(C)CCN)c3)nc21 [Compound 136] as the molecule, how does the pIC50 read?
**A.** 7.34

**Q.** CNCCN(C)Cc1cccc(-c2cc(C(=O)NCc3cnn(C)c3C)c3cnn(C(C)C)c3n2)c1 [Compound 137] was tested. Which pIC50 did it give?
**A.** 8.22

**Q.** How did the pIC50 turn out when CNCCN(C)Cc1cccc(-c2cc(NC(=O)NC)c3cnn(C(C)C)c3n2)c1 [Compound 138] was run?
**A.** 7.73

**Q.** How did the pIC50 turn out when CNCCN(C)Cc1cccc(-c2cc(NS(=O)(=O)N(C)C)c3cnn(C(C)C)c3n2)c1 [Compound 139] was run?
**A.** 7.43

**Q.** How did the pIC50 turn out when Cc1cc2cc(-c3ccc(CNCCN)cc3)ccc2[nH]1 [Compound 141] was run?
**A.** 5.24

**Q.** With CN(CCN)Cc1cccc(-c2cc(C(=O)NC3CCOCC3)c3cnn(C4CC4)c3n2)c1 [Compound 142] as the molecule, how does the pIC50 read?
**A.** 8.03

**Q.** How did the pIC50 turn out when Cc1cccc(CCn2cnc3ccc(-c4ccc(CNCCN)cc4)cc32)c1 [Compound 143] was run?
**A.** 5.25

**Q.** How did the pIC50 turn out when CN(CCN)Cc1cccc(-c2cc(C(=O)NC3CCOCC3)c3cnn(CC(F)(F)F)c3n2)c1 [Compound 144] was run?
**A.** 7.57

**Q.** How did the pIC50 turn out when N#Cc1cccc(Cn2cnc3ccc(-c4ccc(CNCCN)cc4)cc32)c1 [Compound 145] was run?
**A.** 5.10

**Q.** How did the pIC50 turn out when CC(C)n1ncc2c(C(=O)NC3CCOCC3)cc(-c3cccc(CN(C)CCN)c3)nc21 [Compound 148] was run?
**A.** 7.96

**Q.** How did the pIC50 turn out when CC(C)n1ncc2c(C(=O)NCc3ccncc3)cc(-c3cccc(CNCCN)c3)nc21 [Compound 150] was run?
**A.** 6.56

**Q.** How did the pIC50 turn out when CNCCN(C)Cc1cccc(-c2cc(N)c3cnn(C(C)C)c3n2)c1 [Compound 151] was run?
**A.** 7.04

**Q.** With CC(C)n1ncc2c(C(=O)N3CCCCC3)cc(-c3cccc(CNCCN)c3)nc21 [Compound 153] as the molecule, how does the pIC50 read?
**A.** 6.71

**Q.** CNCCN(C)Cc1cccc(-c2cc(OCC(F)(F)F)c3cnn(C(C)C)c3n2)c1 [Compound 154] was tested. Which pIC50 did it give?
**A.** 7.33

**Q.** How did the pIC50 turn out when CC(C)n1ncc2c(C(=O)NCc3ccccc3)cc(-c3cccc(CNCCN)c3)nc21 [Compound 155] was run?
**A.** 6.94

**Q.** NCCNCc1ccc(-c2cnc3c(c2)CCC(=O)N3)cc1 [Compound 156] was tested. Which pIC50 did it give?
**A.** 5.58

**Q.** NCCNCc1ccc(-c2ccc3ncn(C4CCNCC4)c3c2)cc1 [Compound 157] was tested. Which pIC50 did it give?
**A.** 5.34

**Q.** CN(CCN)Cc1cccc(-c2cc(C(=O)NC3CCOCC3)c3cnn(C)c3n2)c1 [Compound 158] was tested. Which pIC50 did it give?
**A.** 7.41

**Q.** With CC(C)n1ncc2c(C(=O)NCc3ccccc3F)cc(-c3cccc(CNCCN)c3)nc21 [Compound 159] as the molecule, how does the pIC50 read?
**A.** 6.76

**Q.** How did the pIC50 turn out when CC(C)n1ncc2c(C(=O)N[C@@H](C)c3ccccc3)cc(-c3cccc(CNCCN)c3)nc21 [Compound 160] was run?
**A.** 7.55

**Q.** With CCS(=O)(=O)Nc1cc(-c2cccc(CN(C)CCNC)c2)nc2c1cnn2C(C)C [Compound 161] as the molecule, how does the pIC50 read?
**A.** 6.77

**Q.** CC(C)n1ncc2c(C(=O)NCC3CCN(C)CC3)cc(-c3cccc(CN(C)CCN(C)C)c3)nc21 [Compound 162] was tested. Which pIC50 did it give?
**A.** 7.04

**Q.** CC(C)n1ncc2c(N3CCOCC3)cc(-c3cccc(CN(C)CCNC4CC4)c3)nc21 [Compound 163] was tested. Which pIC50 did it give?
**A.** 6.79

**Q.** How did the pIC50 turn out when CNCCN(C)Cc1cccc(-c2cc(NS(=O)(=O)C(F)(F)F)c3cnn(C(C)C)c3n2)c1 [Compound 164] was run?
**A.** 6.45

**Q.** With CC(C)n1cnc2ccc(-c3ccc(CNCCN)cc3)cc21 [Compound 166] as the molecule, how does the pIC50 read?
**A.** 4.50

**Q.** With CC(C)n1ncc2c(C(=O)NCC3CCOCC3)cc(-c3cccc(CN(C)CCNC4CC4)c3)nc21 [Compound 167] as the molecule, how does the pIC50 read?
**A.** 7.01

**Q.** With CC(C)n1ncc2c(C(=O)NCc3c(F)cccc3F)cc(-c3cccc(CNCCN)c3)nc21 [Compound 168] as the molecule, how does the pIC50 read?
**A.** 7.63

**Q.** How did the pIC50 turn out when CNCCN(C)Cc1cccc(-c2cc(NS(C)(=O)=O)c3cnn(C(C)C)c3n2)c1 [Compound 169] was run?
**A.** 6.90

**Q.** How did the pIC50 turn out when CNCCN(C)Cc1cccc(-c2cc(NS(C)(=O)=O)c3cnn(C(C)C)c3n2)c1 [Compound 170] was run?
**A.** 6.58

**Q.** With CNCCN(C)Cc1cccc(-c2cnc3c(c2)OCC(=O)N3)c1 [Compound 355] as the molecule, how does the pIC50 read?
**A.** 5.00

**Q.** COc1cccc(CNC(=O)c2cncc(-c3ccc(CNCCN)cc3)c2)c1 [Compound 356] was tested. Which pIC50 did it give?
**A.** 4.61

**Q.** NCCNCc1ccc(-c2cnc3c(c2)OCC(=O)N3)cc1 [Compound 358] was tested. Which pIC50 did it give?
**A.** 5.20
